Values of other authors in patent publication US20220047626A1, “COMPOSITION OF A SPRAY FORMULA TO CONTROL MASTITIS IN BOVINES” (priority 2018, published 2022).

Settings: stated in the description, no method given

Compound	viscosity
OCC(O)CO [glycerin]	950 cP
OC[C@@H](O)[C@@H](O)[C@H](O)[C@@H](O)CO [sorbitol]	200 cP
CC(O)CO (stereo not drawn) [propylene glycol]	52 cP
